Where two headings read alike, the source gives them in different places.
Key:
strain TA100 = assay type: cell-based, Salmonella; details: TA100 liquid-suspension; for Percent survival: DMSO 100
Salmonella TA98 = assay: Salmonella plate-incorporation mutagenicity assay, strain TA98, with S9 mix; assay type: cell-based
[1] = tested on: DNA from Salmonella TA100; assay: Stable DNA adducts by 32P-postlabeling in DNA of treated TA100; assay type: cell-based; details: DMSO 0.024 ± 0.000
Salmonella = details: cited from earlier work
Salmonella TA104 = assay: Salmonella plate-incorporation mutagenicity assay, strain TA104, with S9 mix; assay type: cell-based
[2] = tested on: DNA from Salmonella TA100; assay: Abasic sites by aldehydic-site assay in DNA of treated TA100; assay type: cell-based; details: DMSO 5.9 ± 0.33
Salmonella TA100 = assay: Salmonella plate-incorporation mutagenicity assay, strain TA100; assay type: cell-based

With `O[C@@H]1C=Cc2c(ccc3ccc4ccccc4c23)[C@H]1O` (racemic) [B[c]P 3,4-diol, (± )-trans-3,4-Dihydrobenzo[c]phenanthrene 3,4-diol] the Percent survival (strain TA100; 2 µg/ml) was 56%, the “Fold increase in mutant frequency relative to DMSO-treated cells” value (strain TA100; 5 µg/ml) was 23.4 fold and the “Rev/10^6 survivors” value (strain TA100; 5 µg/ml, DMSO 0.8) was 18.7 Rev/10^6 survivors. For the same molecule, the Percent survival (strain TA100; 5 µg/ml) was 20%, the Rev/plate (Salmonella TA98; TA98 +S9, Test 1, 2 µg/plate, zero-dose 33/40/39) was 47 rev/plate and the Rev/plate (Salmonella TA98; TA98 +S9, Test 1, 5 µg/plate, zero-dose 33/40/39) was 100 rev/plate. The Rev/plate (Salmonella TA98; TA98 +S9, Test 1, 10 µg/plate, zero-dose 33/40/39) was 120 rev/plate, the Rev/plate (Salmonella TA98; TA98 +S9, Test 1, 20 µg/plate, zero-dose 33/40/39) was 226 rev/plate and the Rev/plate (Salmonella TA98; TA98 +S9, Test 1, 40 µg/plate, zero-dose 33/40/39) was 303 rev/plate. The Rev/plate (Salmonella TA98; TA98 +S9, Test 1, 80 µg/plate, zero-dose 33/40/39) was 417 rev/plate, the Rev/plate (Salmonella TA98; TA98 +S9, Test 2, 5 µg/plate, zero-dose 43/41/30) was 120/112 and the Rev/plate (Salmonella TA98; TA98 +S9, Test 2, 10 µg/plate, zero-dose 43/41/30) was 180/199. For the same molecule, the Rev/plate (Salmonella TA98; TA98 +S9, Test 2, 20 µg/plate, zero-dose 43/41/30) was 310/260, the Rev/plate (Salmonella TA98; TA98 +S9, Test 2, 40 µg/plate, zero-dose 43/41/30) was 460/414 and the Rev/plate (Salmonella TA98; TA98 +S9, Test 2, 80 µg/plate, zero-dose 43/41/30) was 492/423. The Rev/plate (Salmonella TA98; TA98 +S9, Test 3, 5 µg/plate, zero-dose 49/50/50) was 145/173, the Rev/plate (Salmonella TA98; TA98 +S9, Test 3, 10 µg/plate, zero-dose 49/50/50) was 238/242 and the Rev/plate (Salmonella TA98; TA98 +S9, Test 3, 20 µg/plate, zero-dose 49/50/50) was 350/328. The Rev/plate (Salmonella TA98; TA98 +S9, Test 3, 40 µg/plate, zero-dose 49/50/50) was 458/504, the Rev/plate (Salmonella TA98; TA98 +S9, Test 3, 80 µg/plate, zero-dose 49/50/50) was 509/597 and the “Mutagenic potency, Revertants/µg ± S.E., TA98” value (Salmonella TA98; plate-incorporation, +S9) was 11.1 ± 3.0 rev/µg. For the same molecule, the “Mutagenicity call TA98” value (Salmonella TA98; plate-incorporation, +S9) was “(+) (Called mutagenic (+) based on showing reproducible, dose-related increases in rev/plate that reached or exceeded 2-fold relative to zero-dose controls)”, the “Stable adducts/10^8 nucleotides ± S.E” value ([1]; TA100, 2 µg/ml) was 5.900 ± 0.230 adducts/10^8 nucleotides and the “Stable adducts/10^8 nucleotides ± S.E” value ([1]; TA100, 5 µg/ml) was 4.500 ± 0.034 adducts/10^8 nucleotides. The “Mutagenicity in Salmonella (early studies)” value (Salmonella) was “mutagenic”, the Rev/plate (Salmonella TA104; TA104 +S9, Test 1, 0.5 µg/plate, zero-dose 379/400/370) was 770/707 and the Rev/plate (Salmonella TA104; TA104 +S9, Test 1, 1 µg/plate, zero-dose 379/400/370) was 1007/1137. For the same molecule, the Rev/plate (Salmonella TA104; TA104 +S9, Test 1, 2.5 µg/plate, zero-dose 379/400/370) was 1618/1616, the Rev/plate (Salmonella TA104; TA104 +S9, Test 1, 5 µg/plate, zero-dose 379/400/370) was 1925/2036 and the Rev/plate (Salmonella TA104; TA104 +S9, Test 3, 0.5 µg/plate, zero-dose 402/395/336) was 663/615. For the same molecule, the Rev/plate (Salmonella TA104; TA104 +S9, Test 3, 1 µg/plate, zero-dose 402/395/336) was 923/920, the Rev/plate (Salmonella TA104; TA104 +S9, Test 3, 2.5 µg/plate, zero-dose 402/395/336) was 1368/1509 and the Rev/plate (Salmonella TA104; TA104 +S9, Test 3, 5 µg/plate, zero-dose 402/395/336) was 1781/1775. The Rev/plate (Salmonella TA104; TA104 +S9, Test 4, 0.5 µg/plate, zero-dose 482/455/462) was 655/635, the Rev/plate (Salmonella TA104; TA104 +S9, Test 4, 1 µg/plate, zero-dose 482/455/462) was 913/888 and the Rev/plate (Salmonella TA104; TA104 +S9, Test 4, 2.5 µg/plate, zero-dose 482/455/462) was 1375/1312. The Rev/plate (Salmonella TA104; TA104 +S9, Test 4, 5 µg/plate, zero-dose 482/455/462) was 1807/1818, the “Mutagenic potency, Revertants/µg ± S.E., TA104” value (Salmonella TA104; plate-incorporation, +S9) was 552 ± 62 rev/µg and the “Mutagenicity call TA104” value (Salmonella TA104; plate-incorporation, +S9) was “(+) (Called mutagenic (+) based on showing reproducible, dose-related increases in rev/plate that reached or exceeded 2-fold relative to zero-dose controls)”. The “Abasic sites/10^5 nucleotides ± S.E” value ([2]; TA100, 2 µg/ml) was 4.2 ± 0.16 sites/10^5 nucleotides, the “Abasic sites/10^5 nucleotides ± S.E” value ([2]; TA100, 5 µg/ml) was 5.3 ± 0.27 sites/10^5 nucleotides and the Rev/plate (Salmonella TA100; TA100 +S9, Test 1, 2 µg/plate, zero-dose 99/110/110) was 694 rev/plate. It also gave a Rev/plate (Salmonella TA100; TA100 +S9, Test 1, 5 µg/plate, zero-dose 99/110/110) of 1002 rev/plate, a Rev/plate (Salmonella TA100; TA100 +S9, Test 1, 10 µg/plate, zero-dose 99/110/110) of 1067 rev/plate and a Rev/plate (Salmonella TA100; TA100 +S9, Test 1, 20 µg/plate, zero-dose 99/110/110) of 942 rev/plate. The Rev/plate (Salmonella TA100; TA100 +S9, Test 1, 40 µg/plate, zero-dose 99/110/110) was 381 rev/plate, the Rev/plate (Salmonella TA100; TA100 +S9, Test 1, 80 µg/plate, zero-dose 99/110/110) was 100 rev/plate and the Rev/plate (Salmonella TA100; TA100 +S9, Test 2, 0.5 µg/plate, zero-dose 84/78/80) was 151/162. The Rev/plate (Salmonella TA100; TA100 +S9, Test 2, 1 µg/plate, zero-dose 84/78/80) was 244/241, the Rev/plate (Salmonella TA100; TA100 +S9, Test 2, 2.5 µg/plate, zero-dose 84/78/80) was 533/604 and the Rev/plate (Salmonella TA100; TA100 +S9, Test 2, 5 µg/plate, zero-dose 84/78/80) was 598/153. For the same molecule, the Rev/plate (Salmonella TA100; TA100 +S9, Test 3, 0.5 µg/plate, zero-dose 127/118/125) was 335/357, the Rev/plate (Salmonella TA100; TA100 +S9, Test 3, 1 µg/plate, zero-dose 127/118/125) was 474/494 and the Rev/plate (Salmonella TA100; TA100 +S9, Test 3, 2.5 µg/plate, zero-dose 127/118/125) was 848/945. The Rev/plate (Salmonella TA100; TA100 +S9, Test 3, 5 µg/plate, zero-dose 127/118/125) was 1216/1218, the Rev/plate (Salmonella TA100; TA100 +S9, Test 4, 0.5 µg/plate, zero-dose 112/140/115) was 328/304 and the Rev/plate (Salmonella TA100; TA100 +S9, Test 4, 1 µg/plate, zero-dose 112/140/115) was 613/577. For the same molecule, the Rev/plate (Salmonella TA100; TA100 +S9, Test 4, 2.5 µg/plate, zero-dose 112/140/115) was 938/941, the Rev/plate (Salmonella TA100; TA100 +S9, Test 4, 5 µg/plate, zero-dose 112/140/115) was 1117/1140 and the “Mutagenic potency, Revertants/µg ± S.E., TA100” value (Salmonella TA100; plate-incorporation, +S9) was 268 ± 46 rev/µg. For the same molecule, the “Mutagenicity call TA100” value (Salmonella TA100; plate-incorporation, +S9) was “(+) (Called mutagenic (+) based on showing reproducible, dose-related increases in rev/plate that reached or exceeded 2-fold relative to zero-dose controls)”.
